In PubChem BioAssay (NCI):
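Step 1: Grow cells in 96-well plates. Step 2: Expose to compound for 48 hours at 5 concentrations. Step 3: Interpolate endpoints linearly; if unreached, use highest concentration. GI50: concentration for 50% inhibition of growth. TGI: concentration producing complete growth inhibition.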

Tests used:
Experiment in all cases: growth of human tumour cells (NCI), 48 h
K-562 leukemia = tested on: K-562 leukemia
HS 578T breast = tested on: HS 578T breast
CCRF-CEM leukemia = tested on: CCRF-CEM leukemia
SR leukemia = tested on: SR leukemia
NCI-H460 lung = tested on: NCI-H460 lung
SK-MEL-28 melanoma = tested on: SK-MEL-28 melanoma
NCI-H23 lung = tested on: NCI-H23 lung
HL-60(TB) leukemia = tested on: HL-60(TB) leukemia
HOP-92 NSCLC = tested on: HOP-92 NSCLC
RPMI-8226 leukemia = tested on: RPMI-8226 leukemia
MDA-MB-231 breast = tested on: MDA-MB-231 breast
MOLT-4 leukemia = tested on: MOLT-4 leukemia
KM12 colon = tested on: KM12 colon
UACC-62 melanoma = tested on: UACC-62 melanoma
T-47D breast = tested on: T-47D breast
M14 melanoma = tested on: M14 melanoma
SNB-75 CNS = tested on: SNB-75 CNS
NCI-H226 lung = tested on: NCI-H226 lung
OVCAR-5 ovarian = tested on: OVCAR-5 ovarian
SK-MEL-2 melanoma = tested on: SK-MEL-2 melanoma
SNB-19 CNS = tested on: SNB-19 CNS
MALME-3M melanoma = tested on: MALME-3M melanoma
EKVX NSCLC = tested on: EKVX NSCLC
NCI/ADR-RES ovarian = tested on: NCI/ADR-RES ovarian
UO-31 renal = tested on: UO-31 renal
BT-549 breast = tested on: BT-549 breast
OVCAR-3 ovarian = tested on: OVCAR-3 ovarian
PC-3 prostate = tested on: PC-3 prostate
MDA-MB-435 = tested on: MDA-MB-435
DU-145 prostate = tested on: DU-145 prostate
RXF 393 renal = tested on: RXF 393 renal
MDA-MB-468 breast = tested on: MDA-MB-468 breast
HOP-62 NSCLC = tested on: HOP-62 NSCLC
COLO 205 colon = tested on: COLO 205 colon
CAKI-1 renal = tested on: CAKI-1 renal
A498 renal = tested on: A498 renal
A549 NSCLC = tested on: A549 NSCLC
SF-539 CNS = tested on: SF-539 CNS
SF-268 CNS = tested on: SF-268 CNS
OVCAR-4 ovarian = tested on: OVCAR-4 ovarian
ACHN renal = tested on: ACHN renal
SK-OV-3 ovarian = tested on: SK-OV-3 ovarian
TK-10 renal = tested on: TK-10 renal
SN12C renal = tested on: SN12C renal
HCC-2998 colon = tested on: HCC-2998 colon
IGROV1 ovarian = tested on: IGROV1 ovarian

CN1CCN(c2ccc(Nc3nc(N4CCN(S(=O)(=O)c5ccc(Cl)cc5)CC4)c4sccc4n3)cc2)CC1 was tested, and the GI50 (K-562 leukemia) was 2.16 µM, the TGI (K-562 leukemia) was 6.04 µM and the GI50 (HS 578T breast) was 13.1 µM. For the same molecule, the TGI (HS 578T breast) was 46.7 µM, the GI50 (CCRF-CEM leukemia) was 4.47 µM and the TGI (CCRF-CEM leukemia) was 32.6 µM. For the same molecule, the GI50 (SR leukemia) was 1.92 µM, the TGI (SR leukemia) was 4.82 µM and the GI50 (NCI-H460 lung) was 1.93 µM. For the same molecule, the TGI (NCI-H460 lung) was 3.69 µM, the GI50 (SK-MEL-28 melanoma) was 1.73 µM and the TGI (SK-MEL-28 melanoma) was 3.36 µM. For the same molecule, the GI50 (NCI-H23 lung) was 19.1 µM, the TGI (NCI-H23 lung) was 66.3 µM and the GI50 (HL-60(TB) leukemia) was 2.1 µM. The TGI (HL-60(TB) leukemia) was 4.47 µM, the GI50 (HOP-92 NSCLC) was 10.7 µM and the TGI (HOP-92 NSCLC) was 28.7 µM. For the same molecule, the GI50 (RPMI-8226 leukemia) was 2.89 µM, the TGI (RPMI-8226 leukemia) was 6.13 µM and the GI50 (MDA-MB-231 breast) was 1.71 µM. The TGI (MDA-MB-231 breast) was 3.27 µM, the GI50 (MOLT-4 leukemia) was 2.21 µM and the TGI (MOLT-4 leukemia) was 5.78 µM. The GI50 (KM12 colon) was 4.85 µM, the TGI (KM12 colon) was 20 µM and the GI50 (UACC-62 melanoma) was 1.71 µM. It also gave a TGI (UACC-62 melanoma) of 3.25 µM, a GI50 (T-47D breast) of 7.17 µM and a TGI (T-47D breast) of 35.9 µM. The GI50 (M14 melanoma) was 1.85 µM, the TGI (M14 melanoma) was 3.62 µM and the GI50 (SNB-75 CNS) was 9.97 µM. The TGI (SNB-75 CNS) was 24.3 µM, the GI50 (NCI-H226 lung) was 18.7 µM and the TGI (NCI-H226 lung) was 55.5 µM. It also gave a GI50 (OVCAR-5 ovarian) of 15.6 µM, a TGI (OVCAR-5 ovarian) of 39.5 µM and a GI50 (SK-MEL-2 melanoma) of 19.4 µM. It also gave a TGI (SK-MEL-2 melanoma) of 40.1 µM, a GI50 (SNB-19 CNS) of 3.69 µM and a TGI (SNB-19 CNS) of 17.1 µM. It also gave a GI50 (MALME-3M melanoma) of 1.64 µM, a TGI (MALME-3M melanoma) of 3.03 µM and a GI50 (EKVX NSCLC) of 22 µM. For the same molecule, the TGI (EKVX NSCLC) was 59.8 µM, the GI50 (NCI/ADR-RES ovarian) was 10.9 µM and the TGI (NCI/ADR-RES ovarian) was 39.7 µM. For the same molecule, the GI50 (UO-31 renal) was 13.7 µM, the TGI (UO-31 renal) was 29.6 µM and the GI50 (BT-549 breast) was 20.8 µM. The TGI (BT-549 breast) was 58.7 µM, the GI50 (OVCAR-3 ovarian) was 2.85 µM and the TGI (OVCAR-3 ovarian) was 7.42 µM. The GI50 (PC-3 prostate) was 4.01 µM, the TGI (PC-3 prostate) was greater than 100 µM and the GI50 (MDA-MB-435) was 1.76 µM. It also gave a TGI (MDA-MB-435) of 3.31 µM, a GI50 (DU-145 prostate) of 3.36 µM and a TGI (DU-145 prostate) of 10.8 µM. The GI50 (RXF 393 renal) was 1.91 µM, the TGI (RXF 393 renal) was 3.68 µM and the GI50 (MDA-MB-468 breast) was 1.64 µM. For the same molecule, the TGI (MDA-MB-468 breast) was 3.14 µM, the GI50 (HOP-62 NSCLC) was 28.9 µM and the TGI (HOP-62 NSCLC) was 88.8 µM. The GI50 (COLO 205 colon) was 2.67 µM, the TGI (COLO 205 colon) was 7.54 µM and the GI50 (CAKI-1 renal) was 11.6 µM. It also gave a TGI (CAKI-1 renal) of 27.8 µM, a GI50 (A498 renal) of 17.5 µM and a TGI (A498 renal) of 31.6 µM. For the same molecule, the GI50 (A549 NSCLC) was 4.35 µM, the TGI (A549 NSCLC) was 24.9 µM and the GI50 (SF-539 CNS) was 1.69 µM. For the same molecule, the TGI (SF-539 CNS) was 3.16 µM, the GI50 (SF-268 CNS) was 13.5 µM and the TGI (SF-268 CNS) was 39 µM. The GI50 (OVCAR-4 ovarian) was 14.9 µM, the TGI (OVCAR-4 ovarian) was 38.7 µM and the GI50 (ACHN renal) was 3.03 µM. It also gave a TGI (ACHN renal) of 11.4 µM, a GI50 (SK-OV-3 ovarian) of 26.8 µM and a TGI (SK-OV-3 ovarian) of 69.2 µM. It also gave a GI50 (TK-10 renal) of 6.47 µM, a TGI (TK-10 renal) of 21.6 µM and a GI50 (SN12C renal) of 13.7 µM. It also gave a TGI (SN12C renal) of 34.7 µM, a GI50 (HCC-2998 colon) of 2.64 µM and a TGI (HCC-2998 colon) of 6.18 µM. The GI50 (IGROV1 ovarian) was 14.5 µM and the TGI (IGROV1 ovarian) was 44.8 µM.
